Results from PubChem BioAssay (NCI).
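All cell lines were grown in 96-well plates and treated with compound for 48 hours. The concentration for full growth arrest is given as TGI.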

Experiments:
Assay in all cases: NCI tumour cell line growth inhibition, 48 h
[1] = test system: SNB-75 CNS
[2] = test system: MCF7 breast
[3] = test system: SNB-19 CNS
[4] = test system: MOLT-4 leukemia
[5] = test system: ACHN renal
[6] = test system: SF-295 CNS
[7] = test system: HCT-15 colon
[8] = test system: SK-MEL-28 melanoma
[9] = test system: UO-31 renal
[10] = test system: SW-620 colon
[11] = test system: COLO 205 colon
[12] = test system: HOP-62 NSCLC
[13] = test system: UACC-257 melanoma
[14] = test system: NCI/ADR-RES ovarian
[15] = test system: NCI-H522 lung

SMILES | TGI [1] | TGI [2] | TGI [3] | TGI [4] | TGI [5] | TGI [6] | TGI [7] | TGI [8] | TGI [9] | TGI [10] | TGI [11] | TGI [12] | TGI [13] | TGI [14] | TGI [15]
CC(C)=CCc1c2c(c(O)c3c(=O)c4c(oc13)-c1ccc(O)cc1OC4C=C(C)C)C=CC(C)(C)O2 (stereo not given) | 25.3 µM | 28.9 µM | 30.2 µM | 22.7 µM | 24.7 µM | 28.6 µM | 24.8 µM | 29.2 µM | 33.7 µM | 23.5 µM | 37.1 µM | 28.4 µM | 29.4 µM | 34.6 µM | 26.9 µM
c1cc2c(cc1[C@@H]1OC[C@@H]3[C@H]1CO[C@H]3c1ccc3c(c1)OCO3)OCO2 | > 100 µM | > 100 µM | > 100 µM | > 100 µM | > 100 µM | > 100 µM | > 100 µM | > 100 µM | > 100 µM | > 100 µM | > 100 µM | > 100 µM | 80.7 µM | > 100 µM | > 100 µM
CC1CCCN1CCCOC(=O)c1ccc(OC2C=CCCC2)cc1 (stereo not given) | 34.6 µM | 49.6 µM | > 100 µM | 55.3 µM | > 100 µM | 37.9 µM | 53 µM | > 100 µM | > 100 µM | 46.4 µM | 31.4 µM | 42.1 µM | > 100 µM | > 100 µM | 54 µM
CC[C@]1(Cc2ccc(OC)c(OC)c2)C=[N+]([O-])O[C@H](OC2CCCC2(c2ccccc2)c2ccccc2)[C@@H]1OC(=O)C(C)(C)C (stereo not given in full) | 13.4 µM | > 23.3 µM | 30.3 µM | > 100 µM | 5.25 µM | 14.8 µM | 8.97 µM | 4.22 µM | 3.97 µM | > 100 µM | 7.78 µM | 6.93 µM | 18.7 µM | 5.58 µM | 4.99 µM
COc1ccc(/C(CC2OC(=O)c3ccccc32)=N\NC(N)=O)cc1 (stereo not given) | > 100 µM | > 100 µM | > 100 µM | > 100 µM | > 100 µM | > 100 µM | > 100 µM | > 100 µM | > 100 µM | > 100 µM | > 100 µM | > 100 µM | > 100 µM | > 100 µM | > 100 µM
Cc1cc2occ(S(=O)(=O)NC(=O)Nc3ccc(Cl)cc3)c(=O)c2c(=O)o1 | > 100 µM | > 100 µM | > 100 µM | > 100 µM | > 100 µM | > 100 µM | > 100 µM | > 100 µM | > 100 µM | > 100 µM | > 100 µM | > 100 µM | > 100 µM | > 100 µM | > 100 µM
CC(CC=O)Nc1nn2c(=O)c3ccccc3nc2s1 (stereo not given) | > 100 µM | > 100 µM | > 100 µM | > 100 µM | > 100 µM | > 100 µM | > 100 µM | > 100 µM | 48.1 µM | > 100 µM | > 100 µM | > 100 µM | > 100 µM | > 100 µM | > 100 µM
CCOC(=O)c1cn(CC)c2ccc3c(c2c1=O)S(=O)(=O)C=C3 | > 100 µM | > 100 µM | > 100 µM | > 100 µM | > 100 µM | > 100 µM | > 100 µM | > 100 µM | > 100 µM | > 100 µM | > 100 µM | > 100 µM | > 100 µM | > 100 µM | > 100 µM
COC(=O)[C@@H]1COC(=O)N1 | > 100 µM | > 100 µM | > 100 µM | > 100 µM | > 100 µM | > 100 µM | > 100 µM | > 100 µM | > 100 µM | > 100 µM | > 100 µM | > 100 µM | > 100 µM | > 100 µM | > 100 µM
CCOC(=O)C1C(c2ccc(OC)cc2)c2c([nH]n(-c3ccccc3)c2=O)CC1(C)O (stereo not given) | > 100 µM | > 100 µM | > 100 µM | 6.35 µM | > 100 µM | > 100 µM | > 100 µM | > 100 µM | > 100 µM | > 100 µM | 50.4 µM | > 100 µM | > 100 µM | > 100 µM | > 100 µM
Cc1cc2c(cc1Cl)Sc1n[nH]c(=O)n1S2(=O)=O | > 100 µM | > 100 µM | > 100 µM | > 100 µM | > 100 µM | > 100 µM | > 100 µM | > 100 µM | > 100 µM | > 100 µM | > 100 µM | > 100 µM | > 100 µM | > 100 µM | > 100 µM
COc1ccc(CC[N+]2(C)COc3cc4oc(=O)cc(C)c4cc3C2)cc1OC (stereo not given) | > 100 µM | > 100 µM | > 100 µM | 18 µM | > 100 µM | > 100 µM | > 100 µM | > 100 µM | > 100 µM | > 100 µM | > 100 µM | > 100 µM | > 100 µM | > 100 µM | > 100 µM
COc1ccc(N=Nc2c(N)nn3c(SC)c(C#N)c(N)nc23)cc1 | 40.6 µM | 7.97 µM | 37.6 µM | 7.53 µM | 28 µM | 39.5 µM | 26.4 µM | 18.8 µM | 25.4 µM | 22.8 µM | 26.4 µM | 44 µM | 20.8 µM | 49.8 µM | 36.8 µM
Oc1ccc(SCc2cc(O)ccc2O)cc1 | > 65.9 µM | 27.4 µM | > 80.2 µM | > 52.9 µM | 26.8 µM | 39 µM | 30.8 µM | 46.7 µM | 20.7 µM | > 62.8 µM | 38.8 µM | 43.7 µM | > 50.3 µM | > 57.5 µM | 4.88 µM
O=C1C=C/C(=C/[C@H]2SSC=C[C@]23C=CC(=O)C3)C1 | > 100 µM | > 100 µM | > 100 µM | 7.16 µM | 55.5 µM | > 100 µM | 48.2 µM | 42 µM | 32.5 µM | > 51.5 µM | 53 µM | > 73.8 µM | 99.8 µM | 68.1 µM | 27.7 µM
Cc1cc(=O)n2nc(CSc3nnc(Sc4cc(O)ccc4O)s3)sc2n1 | > 100 µM | 30.9 µM | > 100 µM | 59.5 µM | > 100 µM | > 100 µM | > 100 µM | > 100 µM | > 100 µM | 44.5 µM | > 100 µM | > 100 µM | > 100 µM | > 100 µM | 46.2 µM
CCCCCCCCCCCCC1N=C(N)NC2(CCCO2)C1C(=O)OC (stereo not given) | 7.99 µM | 9.2 µM | 9.92 µM | 5.3 µM | 25.2 µM | 24.7 µM | 42.9 µM | 21.6 µM | 32.2 µM | 7.65 µM | 10.9 µM | 23.8 µM | 19 µM | 42.9 µM | 9.7 µM
CC(C)[C@@H]1NC(=O)[C@@H]2N=C(O[C@H]2C)[C@H](C(C)C)NC(=O)C2N=C1O[C@H]2C | > 100 µM | > 100 µM | > 100 µM | > 100 µM | > 100 µM | > 100 µM | > 100 µM | > 100 µM | > 100 µM | > 100 µM | > 100 µM | > 100 µM | > 100 µM | > 100 µM | > 100 µM
O=C(O)CCC1NC(/C(=C/c2ccccc2O)NC(=O)c2ccccc2)OC1=O (stereo not given) | 72.4 µM | > 100 µM | > 100 µM | > 100 µM | > 100 µM | > 100 µM | > 100 µM | > 100 µM | 45.8 µM | > 100 µM | > 100 µM | 62.4 µM | > 100 µM | > 100 µM | > 100 µM
S=c1[nH]n2c(COc3cc(Cl)c(OCc4nnc5sc(=S)[nH]n45)cc3Cl)nnc2s1 | > 100 µM | 40.8 µM | > 100 µM | > 100 µM | > 100 µM | > 100 µM | > 100 µM | > 100 µM | 86.4 µM | > 100 µM | > 100 µM | > 100 µM | > 100 µM | > 100 µM | 53.9 µM
Cc1ccccc1Nc1nc2ccccc2nc1NS(=O)(=O)c1ccccc1 | > 100 µM | > 100 µM | > 100 µM | > 100 µM | > 100 µM | > 100 µM | > 100 µM | > 100 µM | > 100 µM | > 100 µM | > 100 µM | > 100 µM | > 100 µM | > 100 µM | > 100 µM
C=CCOC(=O)N1c2ccc(O)cc2[C@@]23O[C@@]24[C@@H]1C#C/C=C\C#C[C@]3(O)C(=O)C[C@@H]4C | > 100 µM | > 100 µM | > 100 µM | 49.4 µM | > 100 µM | > 100 µM | > 100 µM | > 100 µM | > 100 µM | > 100 µM | > 100 µM | > 100 µM | > 100 µM | > 100 µM | > 100 µM
CCCCCCCc1ccc(-c2nnc(N=Nc3ccc(OCCCCC)cc3)s2)s1 | > 100 µM | > 100 µM | > 100 µM | > 100 µM | > 100 µM | > 100 µM | > 100 µM | > 100 µM | > 100 µM | > 100 µM | > 100 µM | > 100 µM | > 100 µM | > 100 µM | > 100 µM
